Assay results from patent publication US20220119411A1, “IMMUNOMODULATORS, COMPOSITIONS AND METHODS THEREOF” (BETTA PHARMACEUTICALS CO., LTD, priority 2018, published 2022).
pIC50: −log10 of the molar value.

target: T1, PD-1/PD-L1 protein/protein interaction (Homo sapiens, UniProt Q9NZQ7); assay: PD-1/PD-L1 homogenous time-resolved fluorescence (HTRF) binding assay; details: recombinant human PD-L1 (19-238)-His 10 nM, human PD-1 (25-167)-Fc 3 nM, 25° C., PBS pH 7.4
T1 construct: Recombinant human PD-L1 protein (19-238) with a His-tag at the C-terminus; purchased AcroBiosystems PD1-H5229 (PD-L1); PD1-H5257 (PD-1)
T1 sequence (Q9NZQ7 19-238): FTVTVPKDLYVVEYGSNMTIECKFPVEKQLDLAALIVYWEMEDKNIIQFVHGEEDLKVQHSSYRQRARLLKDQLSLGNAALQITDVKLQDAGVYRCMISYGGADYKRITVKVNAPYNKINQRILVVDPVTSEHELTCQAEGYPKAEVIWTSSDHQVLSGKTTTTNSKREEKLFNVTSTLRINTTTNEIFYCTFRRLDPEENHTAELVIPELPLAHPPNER
Procedure: Resolved Fluorescence (HTRF) Binding Assay
The assays were conducted in a standard black 384-well polystyrene plate with a final volume of 20 μL. Inhibitors were first serially diluted in DMSO and then added to the plate wells before the addition of other reaction components. The final concentration of DMSO in the assay was 1%. The assays were carried out at 25° C. in the PBS buffer (pH 7.4) with 0.05% Tween-20 and 0.1% BSA. Recombinant human PD-L1 protein (19-238) with a His-tag at the C-terminus was purchased from AcroBiosy stems (PD1-H5229). Recombinant human PD-1 protein (25-167) with Fc tag at the C-terminus was also purchased from AcroBiosystems (PD1-H5257). PD-L1 and PD-1 proteins were diluted in the assay buffer and 10 μL was added to the plate well. Plates were centrifuged and proteins were preincubated with inhibitors for 40 min. The incubation was followed by the addition of 10 μL of HTRF detection buffer supplemented with Europium cryptate-labeled anti-human IgG (PerkinElmer-AD0212) specific for Fc and anti-His antibody conjugated to SureLight®—Allophycocyanin (APC, PerkinElmer-AD0059H). After centrifugation, the plate was incubated at 25° C. for 60 min. Before reading on a PHERAstar FS plate reader (665 nm/620 nm ratio). Final concentrations in the assay were—3 nM PD1, 10 nM PD-L1, 1 nM europium anti-human IgG and 20 nM anti-His-Allophycocyanin. IC50 determination was performed by fitting the curve of percent control activity versus the log of the inhibitor concentration using the GraphPad Prism 5.0 software.
Data obtained for the Example compounds using the PD-1/PD-L1 homogenous time-resolved fluorescence (HTRF) binding assay described in Example A is provided in Table 2.

Row | pIC50 | SMILES
1 | 7.00 to 7.60 | CN1CCc2c(-c3cccc4c3CCN4C(=O)c3nc4c(s3)CN(CC(=O)O)CC4)cccc21 [Example 1, 2-(2-(1′-methyl-[4,4′-biindoline]-1-carbonyl)-6,7-dihydrothiazolo[5,4-c]pyridin-5(4H)-yl)acetic acid]
2 | ≥ 7.60 | CC(=O)N1CCc2c(-c3cccc4c3CCN4C(=O)c3nc4c(s3)CN(CC(=O)O)CC4)cccc21 [Example 2, 2-(2-(1′-acetyl-[4,4′-biindoline]-1-carbonyl)-6,7-dihydrothiazolo[5,4-c]pyridin-5(4H)-yl)acetic acid]
3 | ≥ 7.60 | COc1cccc(-c2cccc3c2CCN3C(=O)c2nc3c(s2)CN(CC(=O)O)CC3)c1 [Example 3, 2-(2-(4-(3-methoxyphenyl)indoline-1-carbonyl)-6,7-dihydrothiazolo[5,4-c]pyridin-5(4H)-yl)acetic acid]
4 | ≥ 7.60 | O=C(O)CN1CCc2nc(C(=O)N3CCc4c(-c5ccccc5)cccc43)sc2C1 [Example 4, 2-(2-(4-phenylindoline-1-carbonyl)-6,7-dihydrothiazolo[5,4-c]pyridin-5(4H)-yl)acetic acid]
5 | 7.00 to 7.60 | Cc1ccccc1-c1cccc2c1CCN2C(=O)c1nc2c(s1)CN(CC(=O)O)CC2 [Example 5, 2-(2-(4-(o-tolyl)indoline-1-carbonyl)-6,7-dihydrothiazolo[5,4-c]pyridin-5(4H)-yl)acetic acid]
6 | ≥ 7.60 | O=C(O)CN1CCc2nc(C(=O)N3CCc4c(-c5cccc6c5CCN6CCCN5CCOCC5)cccc43)sc2C1 [Example 6, 2-(2-(1′-(3-morpholinopropyl)-[4,4′-biindoline]-1-carbonyl)-6,7-dihydrothiazolo[5,4-c]pyridin-5(4H)-yl)acetic acid]
7 | ≥ 7.60 | O=C(O)CN1CCc2nc(C(=O)N3CCc4c(-c5cccc(OCCCN6CCC(O)C6)c5)cccc43)sc2C1 (stereo not drawn) [Example 7, 2-(2-(4-(3-(3-(3-hydroxypyrrolidin-1-yl)propoxy)phenyl)indoline-1-carbonyl)-6,7-dihydrothiazolo[5,4-c]pyridin-5(4H)-yl)acetic acid]
8 | ≥ 7.60 | O=C(O)CN1CCc2nc(C(=O)N3CCc4c(-c5cccc(OCCN6CCC(O)C6)c5)cccc43)sc2C1 (stereo not drawn) [Example 8, 2-(2-(4-(3-(2-(3-hydroxypyrrolidin-1-yl)ethoxy)phenyl)indoline-1-carbonyl)-6,7-dihydrothiazolo[5,4-c]pyridin-5(4H)-yl)acetic acid]
9 | ≥ 7.60 | O=C(O)CN1CCc2nc(C(=O)N3CCc4c(-c5cccc(OCCCN6CCC(O)C6)c5)cccc43)sc2C1 (stereo not drawn) [Example 10, 2-(2-(4-(3-(3-(3-hydroxypyrrolidin-1-yl)propoxy)phenyl)indoline-1-carbonyl)-6,7-dihydrothiazolo[5,4-c]pyridin-5(4H)-yl)acetic acid]
10 | ≥ 7.60 | O=C(O)CN1CCc2nc(C(=O)N3CCc4c(-c5cccc6c5CCN6CCCN5CCC(O)C5)cccc43)sc2C1 (stereo not drawn) [Example 11, 2-(2-(1′-(3-(3-hydroxypyrrolidin-1-yl)propyl)-[4,4′-biindoline]-1-carbonyl)-6,7-dihydrothiazolo[5,4-c]pyridin-5(4H)-yl)acetic acid]
11 | ≥ 7.60 | O=C(O)CN1CCc2nc(C(=O)N3CCc4c(-c5cccc6c5CCN6CCN5CCC(O)C5)cccc43)sc2C1 (stereo not drawn) [Example 12, 2-(2-(1′-(2-(3-hydroxypyrrolidin-1-yl)ethyl)-[4,4′-biindoline]-1-carbonyl)-6,7-dihydrothiazolo[5,4-c]pyridin-5(4H)-yl)acetic acid]
12 | ≥ 7.60 | Cc1c(NC(=O)CCN2CCC(O)C2)cccc1-c1cccc2c1CCN2C(=O)c1nc2c(s1)CN(CC(=O)O)CC2 (stereo not drawn) [Example 13, 2-(2-(4-(3-(3-(3-hydroxypyrrolidin-1-yl)propanamido)-2-methylphenyl)indoline-1-carbonyl)-6,7-dihydrothiazolo[5,4-c]pyridin-5(4H)-yl)acetic acid]
13 | ≥ 7.60 | O=C(O)CN1CCc2nc(C(=O)N3CCc4c(-c5cccc(NC(=O)CCN6CCC(O)C6)c5)cccc43)sc2C1 (stereo not drawn) [Example 14, 2-(2-(4-(3-(3-(3-hydroxypyrrolidin-1-yl)propanamido)phenyl)indoline-1-carbonyl)-6,7-dihydrothiazolo[5,4-c]pyridin-5(4H)-yl)acetic acid]
14 | ≥ 7.60 | O=C(O)CN1CCc2nc(C(=O)N3CCc4c(-c5cccc(OCCCN6CCOCC6)c5)cccc43)sc2C1 [Example 15, 2-(2-(4-(3-(3-morpholinopropoxy)phenyl)indoline-1-carbonyl)-6,7-dihydrothiazolo[5,4-c]pyridin-5(4H)-yl)acetic acid]
15 | ≥ 7.60 | O=C(O)CN1CCc2nc(C(=O)N3CCc4c(-c5cccc(CCCCN6CCOCC6)c5)cccc43)sc2C1 [Example 16, 2-(2-(4-(3-(4-morpholinobutyl)phenyl)indoline-1-carbonyl)-6,7-dihydrothiazolo[5,4-c]pyridin-5(4H)-yl)acetic acid]
16 | ≥ 7.60 | O=C(O)CN1CCc2nc(C(=O)N3CCc4c(-c5cccc(CCCN6CCOCC6)c5)cccc43)sc2C1 [Example 17, 2-(2-(4-(3-(3-morpholinopropyl)phenyl)indoline-1-carbonyl)-6,7-dihydrothiazolo[5,4-c]pyridin-5(4H)-yl)acetic acid]
17 | ≥ 7.60 | O=C(O)CN1CCc2nc(C(=O)N3CCc4c(-c5cccc(/C=C/CN6CCOCC6)c5)cccc43)sc2C1 [Example 18, (E)-2-(2-(4-(3-(3-morpholinoprop-1-en-1-yl)phenyl)indoline-1-carbonyl)-6,7-dihydrothiazolo[5,4-c]pyridin-5(4H)-yl)acetic acid]
18 | ≥ 7.60 | O=C(O)CN1CCc2nc(C(=O)N3CCc4c(-c5cccc(CCN6CCOCC6)c5)cccc43)sc2C1 [Example 19, 2-(2-(4-(3-(2-morpholinoethyl)phenyl)indoline-1-carbonyl)-6,7-dihydrothiazolo[5,4-c]pyridin-5(4H)-yl)acetic acid]
19 | ≥ 7.60 | Cc1c(NC(=O)CCN2CCC(O)C2)cccc1-c1cccc2c1CCN2C(=O)c1nc2c(n1C)CN(CC(=O)O)CC2 (stereo not drawn) [Example 20, 2-(2-(4-(3-(3-(3-hydroxypyrrolidin-1-yl)propanamido)-2-methylphenyl)indoline-1-carbonyl)-3-methyl-3,4,6,7-tetrahydro-5H-imidazo[4,5-c]pyridin-5-yl)acetic acid]
20 | ≥ 7.60 | Cc1c(OCCCN2CCOCC2)cccc1-c1cccc2c1CCN2C(=O)c1nc2c(n1C)CN(CC(=O)O)CC2 [Example 21, 2-(3-methyl-2-(4-(2-methyl-3-(3-morpholinopropoxy)phenyl)indoline-1-carbonyl)-3,4,6,7-tetrahydro-5H-imidazo[4,5-c]pyridin-5-yl)acetic acid]
21 | ≥ 7.60 | Cc1c(NC(=O)CCN2CCC(O)C2)cccc1-c1cccc2c1CCN2C(=O)c1nc2c(o1)CN(CC(=O)O)CC2 (stereo not drawn) [Example 22, 2-(2-(4-(3-(3-(3-hydroxypyrrolidin-1-yl)propanamido)-2-methylphenyl)indoline-1-carbonyl)-6,7-dihydrooxazolo[5,4-c]pyridin-5(4H)-yl)acetic acid]
22 | ≥ 7.60 | Cc1c(OCCCN2CCOCC2)cccc1-c1cccc2c1CCN2C(=O)c1nc2c(o1)CN(CC(=O)O)CC2 [Example 23, 2-(2-(4-(2-methyl-3-(3-morpholinopropoxy)phenyl)indoline-1-carbonyl)-6,7-dihydrooxazolo[5,4-c]pyridin-5(4H)-yl)acetic acid]
23 | 7.00 to 7.60 | O=C(O)CN1CCc2nc(C(=O)N3CCc4c(-c5cccc6c5CCN6C(=O)c5nccs5)cccc43)sc2C1 [Example 24, 2-(2-(1′-(thiazole-2-carbonyl)-[4,4′-biindoline]-1-carbonyl)-6,7-dihydrothiazolo[5,4-c]pyridin-5(4H)-yl)acetic acid]
24 | 7.00 to 7.60 | O=C(O)CN1CCc2nc(C(=O)N3CCc4c(-c5cccc6c5CCN6C(=O)c5ccccn5)cccc43)sc2C1 [Example 25, 2-(2-(1′-picolinoyl-[4,4′-biindoline]-1-carbonyl)-6,7-dihydrothiazolo[5,4-c]pyridin-5(4H)-yl)acetic acid]
25 | ≥ 7.60 | Cc1c(NC(=O)c2nccs2)cccc1-c1cccc2c1CCN2C(=O)c1nc2c(s1)CN(CC(=O)O)CC2 [Example 26, 2-(2-(4-(2-methyl-3-(thiazole-2-carboxamido)phenyl)indoline-1-carbonyl)-6,7-dihydrothiazolo[5,4-c]pyridin-5(4H)-yl)acetic acid]
26 | ≥ 7.60 | Cc1c(NC(=O)c2ccccn2)cccc1-c1cccc2c1CCN2C(=O)c1nc2c(s1)CN(CC(=O)O)CC2 [Example 27, 2-(2-(4-(2-methyl-3-(picolinamido)phenyl)indoline-1-carbonyl)-6,7-dihydrothiazolo[5,4-c]pyridin-5(4H)-yl)acetic acid]

Row | SMILES | pIC50
27 | O=C(O)CN1CCc2nc(C(=O)N3CCc4c(-c5cccc(OCCCCN6CCC(O)C6)c5)cccc43)sc2C1 (stereo not drawn) [Example 9, 2-(2-(4-(3-(4-(3-hydroxypyrrolidin-1-yl)butoxy)phenyl)indoline-1-carbonyl)-6,7-dihydrothiazolo[5,4-c]pyridin-5(4H)-yl)acetic acid] | ≥ 7.60
